Data on 34 compounds can be found in patent US12509438B2, “Pyrazole derivative” (Aptabio Therapeutics Inc., priority 2020, dated 2025).

The first experiment concerns differentiated HL-60 cells. Put plainly: ROS production induced by PMA in HL-60 cells differentiated into neutrophil cells (L-012 luminescence). It is filed as cell-based, human. The settings on record: Homo sapiens, HL-60, synthetic example compounds 0.5 uM, read-out: ROS production inhibitory effect. From the text:
(§1) In order to confirm an effect of the synthetic example compounds on ROS production from fibroblasts and specific substrate cells, ROS production was induced by stimulation of PMA (phorbol 12-myristate 13-acetate), TGF-β1, palmitate or high concentration-glucose, or the like for HL-60 cells (Korean Cell Line Bank), NHLF(normal human lung fibroblast, Lonza), LX-2 (human hepatic stellate cells, Sigma), ARPE19 (human retinal pigment epithelial cell, ATCC), KEL-FIB (Keloid fibroblast, ATCC) cells differentiated into neutrophil cells by treatment of DMSO, and the inhibitory effect of ROS production of the synthetic example compounds was observed under this condition.
HL-60 cells (human leukemia cells, ATCC) was suspended in a medium comprising 1.25% DMSO (RPMI+10% FBS) and cultured under the condition of 5% CO2, 37° C. for 6 days to induce differentiation into neutrophil cells. […] Then, PMA of […] was treated in each well comprising cells and a drug to induce production of ROS, and this ROS production was measured by observing the level of luminescence of each well using 100 μM L-012.
Take `Oc1c2c(nn1-c1ccccn1)CCCC2` [compound 1]: the inhibition at 0.5 µM was less than 30%.
Same read-out and setting: as for `Oc1c2c(nn1-c1ccc(C(F)(F)F)cn1)CCCC2` [compound 2], the figure is less than 30%; as for `Oc1c2c(nn1-c1ccccn1)CN(Cc1ccccc1)CC2` [compound 3], 50 to 70%; as for `Oc1c2c(nn1-c1ccc(C(F)(F)F)cn1)CN(Cc1ccccc1)CC2` [compound 4], 30 to 50%.
Same read-out and setting: in the case of `Oc1c2c(nn1-c1ccccn1)CN(Cc1ccc(F)cc1)CC2` [compound 6] it was 30 to 50%.
Regarding `Cc1ccc(CN2CCc3c(nn(-c4ccccn4)c3O)C2)cc1` [compound 7], the inhibition at 0.5 µM is 30 to 50%.
With `N#Cc1ccc(CN2CCc3c(nn(-c4ccccn4)c3O)C2)cc1` [compound 8], the inhibition at 0.5 µM lay in the range of 50 to 70%.
In the case of `Oc1c2c(nn1-c1ccccn1)CN(Cc1cc(F)cc(F)c1)CC2` [compound 9], the inhibition at 0.5 µM was in the range of 50 to 70%.
In the case of `Oc1c2c(nn1-c1ccccn1)CN(Cc1cccc(C(F)(F)F)c1)CC2` [compound 10], the inhibition at 0.5 µM was in the range of 30 to 50%.
On to `CCN1CCc2c(nn(-c3ccccn3)c2O)C1` [compound 15], for which the inhibition at 0.5 µM is less than 30%.
Turning to `C#CCN1CCc2c(nn(-c3ccccn3)c2O)C1` [compound 16], the inhibition at 0.5 µM is less than 30%.
As to `O=C(NC1CCCCC1)N1CCc2c(nn(-c3ccccn3)c2O)C1` [compound 23], the inhibition at 0.5 µM was less than 30%.
`O=S(=O)(c1ccccc1)N1CCc2c(nn(-c3ccccn3)c2O)C1` [compound 26]: the inhibition at 0.5 µM lay within 50 to 70%.
Regarding `O=C(OCc1ccc([N+](=O)[O-])cc1)N1CCc2c(nn(-c3ccccn3)c2O)C1` [compound 32], the inhibition at 0.5 µM fell in the range of 30 to 50%.
Regarding `Oc1c2c(nn1-c1ccccn1)CCN(Cc1ccccc1)C2` [compound 34], the inhibition at 0.5 µM lay within 30 to 50%.
In the case of `Oc1c2c(nn1-c1ccc(Cl)cn1)CN(Cc1ccccc1)CC2` [compound 35], the inhibition at 0.5 µM lay in the range of 50 to 70%.
In the case of `O=C(O)c1ccc(-n2nc3c(c2O)CCN(Cc2ccccc2)C3)cc1` [compound 36], the inhibition at 0.5 µM was greater than 70%.
Consider `Oc1c2c(nn1-c1ccc(Br)cc1)CN(Cc1ccccc1)CC2` [compound 37], for which the inhibition at 0.5 µM was greater than 70%.
On to `Oc1c2c(nn1-c1ccccc1)CN(Cc1ccccc1)CC2` [compound 38], for which the inhibition at 0.5 µM is greater than 70%.
Take `Oc1c2c(nn1-c1ccc(C(F)(F)F)cn1)CCN(Cc1ccccc1)C2` [compound 39]: the inhibition at 0.5 µM is less than 30%.
For the compound `Oc1c2c(nn1-c1ccccc1)CCN(Cc1ccccc1)C2` [compound 40], the inhibition at 0.5 µM fell in the range of 50 to 70%.
As to `Oc1c2c(nn1-c1ccc(Br)cc1)CCN(Cc1ccccc1)C2` [compound 41], the inhibition at 0.5 µM was in the range of 50 to 70%.
In the case of `Oc1c2c(nn1-c1ccccc1Cl)CCN(Cc1ccccc1)C2` [compound 42], the inhibition at 0.5 µM is less than 30%.
Still for that read-out and setting: in the case of `Oc1c2c(nn1-c1ccc(C(F)(F)F)cn1)CCN(Cc1cccc(C(F)(F)F)c1)C2` [compound 50] it was 30 to 50%; in that of `N#Cc1ccc(CN2CCc3nn(-c4ccccn4)c(O)c3C2)cc1` [compound 75], 50 to 70%; in that of `N#Cc1ccc(CN2CCc3nn(-c4ccc(C(F)(F)F)cn4)c(O)c3C2)cc1` [compound 76], 30 to 50%.
`Oc1c2c(nn1-c1ccccn1)CCN(Cc1cccc(C(F)(F)F)c1)C2` [compound 77]: the inhibition at 0.5 µM lay within 30 to 50%.
For `Oc1c2c(nn1-c1ccccn1)CCN(Cc1cc3ccccc3cn1)C2` [compound 79], the inhibition at 0.5 µM was 50 to 70%.
Turning to `Oc1c2c(nn1-c1ccc(C(F)(F)F)cn1)CCN(Cc1cc3ccccc3cn1)C2` [compound 80], the inhibition at 0.5 µM fell in the range of 50 to 70%.
For the compound `O=C(O)c1ccc(-n2nc3c(c2O)CN(Cc2ccccc2)CC3)cc1` [compound 81], the inhibition at 0.5 µM is greater than 70%.

The same experiment, now with this note: synthetic example compounds 0.5 uM, 0.5 µM.
For `Oc1c2c(nn1-c1ccc(C(F)(F)F)cn1)CCN(Cc1cccc(C(F)(F)F)c1)C2` [compound 78], the “ROS production inhibitory effect” value is reported as “*** (***: 50 < <70%)”.

A further experiment relates to STAM mice. Put plainly: Non-alcoholic steatohepatitis and liver fibrosis STAM mouse model. In kind it is in vivo. The settings on record: STAM+TEL; 10 mg/kg orally once a day for 28 days; STAM+vehicle 0.93±0.36, normal control 0.29±0.06. From the text: In order to confirm the therapeutic effect for non-alcoholic steatohepatitis and liver fibrosis of the synthetic example compound of the present invention, non-alcoholic steatohepatitis and liver fibrosis-induced STAM mice (6-week-old, female, SMC laborlabories Inc, Japan) were used. All the mice were maintained under a standard condition. The experiment was progressed by dividing the experimental animals into a normal control group in which distilled water was orally administered (negative control), STAM group in which non-alcoholic steatohepatitis and fibrosis were induced (vehicle control), an experimental group in which telmisartane of 10 mg/kg was orally administered daily as a STAM positive control group (STAM+TEL), and an experimental group in which the synthetic example compound of 3 or 10 mg/kg was orally administered daily (STAM+Synthetic example) as 7 mice per group. The telmisartane and synthetic example compound were orally administered once a day for 28 days.
After completing the test, the animals were anesthetized and liver tissue was extracted for each individual, and blood was taken for examination. The weight of the liver tissue was measured and it was photographed. The tissue was fixed in 10% buffered neutral formalin solution. […]
In the case of `CCCc1nc2c(C)cc(-c3nc4ccccc4n3C)cc2n1Cc1ccc(-c2ccccc2C(=O)O)cc1` [telmisartane], the “liver fibrosis area (Sirius red staining)” value was determined as 0.44±0.15.

Staying with this experiment, now noted: STAM+TEL; 10 mg/kg orally once a day for 28 days; STAM+vehicle 4.8±0.7, normal control 0.0±0.0.
On to `CCCc1nc2c(C)cc(-c3nc4ccccc4n3C)cc2n1Cc1ccc(-c2ccccc2C(=O)O)cc1` [telmisartane], for which the “improved NAS score” value is given as 2.8±0.7.

Another experiment relates to LX-2 cells. Put plainly: ROS production in LX-2 cells (L-012 or DCF-DA). It is filed as cell-based, human. The settings on record: FIG. 1.
Source text: as §1
(§2) NHLF (normal human lung fibroblast, Lonza), LX-2 (human hepatic stellate cells, Sigma), ARPE19 (human retinal pigment epithelial cell, ATCC), KEL-FIB (keloid fibroblast, ATCC) cells were suspended in a culture medium comprising 10% FBS and aliquoted in a 96 well plate, and then cultured under the condition of 5% CO2, 37° C. for 24 hours. The synthetic example compound was pretreated from 30 minutes to 1 hour, and then a ROS stimulus was treated to each well comprising cells and a drug. After additional culturing for 48 hours, the level of ROS production was confirmed by using L-012 or DCF-DA.
As for `Oc1c2c(nn1-c1ccccn1)CCN(Cc1ccccc1)C2` [Synthetic example 34, 5-benzyl-2-(pyridin-2-yl)-4,5,6,7-tetrahydro-2H-pyrazolo[4,3-c]pyridin-3-ol], the “inhibition of ROS production induced by PMA” value is on record as “inhibited ROS production”.

Another experiment relates to NHLF cells. Put plainly: ROS production in NHLF cells (L-012 or DCF-DA). It is filed as cell-based, human. The settings on record: FIG. 1.
Source text: as §1, §2
On to `Oc1c2c(nn1-c1ccccn1)CCN(Cc1ccccc1)C2` [Synthetic example 34, 5-benzyl-2-(pyridin-2-yl)-4,5,6,7-tetrahydro-2H-pyrazolo[4,3-c]pyridin-3-ol], for which the “inhibition of ROS production induced by PMA” value is on record as “inhibited ROS production”.

Another experiment has as its system bleomycin-induced pulmonary fibrosis mouse model. The experiment can be described thus: Bleomycin-induced pulmonary fibrosis mouse model. It is filed as in vivo. The settings on record: BLM+NIN; 100 mg/kg orally once a day for 28 days; BLM group 5.4±0.5, negative control 0.4±0.55. Here is the method: As a bleomycin-induced pulmonary fibrosis mouse model, 5-week-old, C57BL/6J male mice weighing 20 g before and after were used. The experiment was progressed by dividing the experimental animals into a control group in which distilled water was orally administered (Control), a group in which pulmonary fibrosis was caused by bleomycin (BLM), an experimental group in which bleomycin was administered and in 3 weeks, as a positive control group, nintedanib of 100 mg/kg was orally administered daily (BLM+NIN), and an experimental group in which bleomycin was administered and in 3 weeks, the synthetic example compound of the present invention of 3 mg/kg was orally administered daily (BLM+Synthetic example) as 7 mice per group.
The nintedanib and synthetic example compound was orally administered once a day for 28 days. […]
Comprehensively, based on the above histological and immunological results, by quantifying with improved Ashcroft scores (modified Ashcroft scale) widely used in the pulmonary fibrosis tissue analysis field, the severity of pulmonary fibrosis of each of the synthetic example compound administration groups (BLM+Synthetic example) compared to the negative control group (control), experimental group (BLM), positive control group was evaluated. […] For the experimental result, the mean and standard deviation were calculated using SPSS ver. […]
On to `COC(=O)c1ccc2c(c1)NC(=O)/C2=C(\Nc1ccc(N(C)C(=O)CN2CCN(C)CC2)cc1)c1ccccc1` [nintedanib], for which the “improved Ashcroft score (modified Ashcroft scale)” value came to 5.0±0.
